Read-outs that look alike come from different tables or passages of the source.
Columns and labels:
[1] = target: sheep lung lymph tryptase; assay: Inactivation rate of sheep lung lymph tryptase; format: biochemical; settings: Table III; 0.1M Hepes, 0.5M NaCl, pH 7.0, 25° C
Procedure: Inactivation rates of serine proteases by substituted isocoumarins were measured by the incubation method. An aliquot of inhibitor (25 or 50 μl) in Me2 SO was added to a buffered enzyme solution (0.01-2.3 μM) to initiate the inactivation. Aliquots (50 μl) were withdrawn at various intervals and the residual enzymatic activity was measured. […] 0.1 Hepes, 0.01M CaCl2, pH 7.5 buffer was utilized for trypsin and coagulation enzymes. […] The inhibitor concentrations are shown in all the tables. Peptide thioesters or peptide nitroanilides with appropriate sequence were used as substrates for various serine proteases.
^a Inactivation rates were measured at 0.1M Hepes, 0.5M NaCl, pH 7.5
buffer, 8% Me2 SO and 25° C.

complement protein B = complement protein B (Homo sapiens, UniProt P00751); assay: Inactivation rate of complement protein B; format: biochemical
Chain of complement protein B (P00751 26-764): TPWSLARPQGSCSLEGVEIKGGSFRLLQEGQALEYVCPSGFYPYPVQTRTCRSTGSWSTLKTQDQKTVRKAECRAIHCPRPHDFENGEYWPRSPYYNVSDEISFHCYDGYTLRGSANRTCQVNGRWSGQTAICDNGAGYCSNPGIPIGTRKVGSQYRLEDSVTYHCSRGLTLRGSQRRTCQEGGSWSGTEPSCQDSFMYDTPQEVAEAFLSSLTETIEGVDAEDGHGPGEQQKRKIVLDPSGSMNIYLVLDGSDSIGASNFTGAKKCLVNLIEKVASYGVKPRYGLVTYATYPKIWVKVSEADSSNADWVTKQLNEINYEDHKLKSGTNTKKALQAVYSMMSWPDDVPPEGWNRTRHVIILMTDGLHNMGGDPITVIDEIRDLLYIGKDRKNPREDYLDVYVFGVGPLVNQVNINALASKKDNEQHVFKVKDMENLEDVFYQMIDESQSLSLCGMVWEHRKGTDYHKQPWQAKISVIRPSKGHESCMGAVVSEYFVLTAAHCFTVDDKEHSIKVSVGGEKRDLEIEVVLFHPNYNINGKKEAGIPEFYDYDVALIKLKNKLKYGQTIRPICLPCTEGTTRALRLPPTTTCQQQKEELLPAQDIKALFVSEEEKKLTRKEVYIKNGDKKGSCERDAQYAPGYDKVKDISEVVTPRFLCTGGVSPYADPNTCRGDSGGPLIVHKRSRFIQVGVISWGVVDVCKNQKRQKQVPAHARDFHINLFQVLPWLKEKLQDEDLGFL
Procedure: (§1) Inactivation rates of serine proteases by substituted isocoumarins were measured by the incubation method. An aliquot of inhibitor (25 or 50 μl) in Me2 SO was added to a buffered enzyme solution (0.01-2.3 μM) to initiate the inactivation. Aliquots (50 μl) were withdrawn at various intervals and the residual enzymatic activity was measured. Me2 SO concentration in the reaction mixture was 8-12% (v/v). 0.1 Hepes, 0.01M CaCl2, pH 7.5 buffer was utilized for trypsin and coagulation enzymes. 0.1M Hepes, 0.5M NaCl, pH 7.5 was utilized for other serine proteases. The inhibitor concentrations are shown in all the tables. Peptide thioesters or peptide nitroanilides with appropriate sequence were used as substrates for various serine proteases. All peptide thioester hydrolysis rates were measured with assay mixtures containing 4,4'-dithiodipyridine (ε324 =19800M^-1 cm^-1; Grasetti & Murray, Arch. Biochem. Biophys. 119, pp 41-49 (1967)). Peptide 4-nitroanilide nitroanilide hydrolysis was measured at 410 nm (ε410 =8800M^-1 cm^-1; Erlanger et al., Arch. Biochem. Biophys. 95, pp 271-278 (1961)). First order inactivation rate constant (kobs) were obtained from plots of ln (vt /vo) vs time, and the correlation coefficients were greater than 0.98.
(§2) ^a Conditions were 0.1M Hepes, 0.5M NaCl, pH 7.5, 8-10% Me2 SO
(§3) and 25° C. Inactivation rates were measured by incubation method.
(§4) Enzyme concentrations were as follows: protein D, 1-9 μM; C2, 0.7-1
(§5) μM; B, 1.8 μM; Bb, 0.3-0.8 μM; Cl^- s, 0.07 μM; Cl^-

complement protein C2 = target: T1, complement protein C2 (Homo sapiens, UniProt P06681); assay: Inactivation rate of complement protein C2; format: biochemical
T1 sequence (P06681 21-752): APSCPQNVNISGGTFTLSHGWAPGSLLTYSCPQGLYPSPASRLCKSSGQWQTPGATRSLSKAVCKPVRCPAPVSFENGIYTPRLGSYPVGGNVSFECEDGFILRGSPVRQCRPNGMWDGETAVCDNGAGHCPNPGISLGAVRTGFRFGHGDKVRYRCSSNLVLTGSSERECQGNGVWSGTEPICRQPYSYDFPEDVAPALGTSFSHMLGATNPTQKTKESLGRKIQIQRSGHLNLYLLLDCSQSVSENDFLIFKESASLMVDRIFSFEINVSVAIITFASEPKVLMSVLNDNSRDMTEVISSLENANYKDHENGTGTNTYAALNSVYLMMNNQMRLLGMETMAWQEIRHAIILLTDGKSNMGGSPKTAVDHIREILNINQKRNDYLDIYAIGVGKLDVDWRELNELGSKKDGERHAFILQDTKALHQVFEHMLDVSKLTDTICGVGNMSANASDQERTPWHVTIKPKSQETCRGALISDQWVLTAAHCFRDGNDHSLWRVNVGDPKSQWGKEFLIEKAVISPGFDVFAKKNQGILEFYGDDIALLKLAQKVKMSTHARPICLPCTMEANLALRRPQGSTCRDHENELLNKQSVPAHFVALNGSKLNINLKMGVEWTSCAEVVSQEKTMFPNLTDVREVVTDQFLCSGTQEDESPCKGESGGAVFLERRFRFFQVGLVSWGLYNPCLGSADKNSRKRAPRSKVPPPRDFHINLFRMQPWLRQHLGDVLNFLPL
Procedure: as §1, §2, §3, §4, §5

complement protein D = complement protein D (Homo sapiens, UniProt P00746); assay: Inactivation rate of complement protein D; format: biochemical; settings: Table II; pH 7.5, 25° C; [I] 0.05 to 1.29 mM
Chain of complement protein D (P00746 26-253): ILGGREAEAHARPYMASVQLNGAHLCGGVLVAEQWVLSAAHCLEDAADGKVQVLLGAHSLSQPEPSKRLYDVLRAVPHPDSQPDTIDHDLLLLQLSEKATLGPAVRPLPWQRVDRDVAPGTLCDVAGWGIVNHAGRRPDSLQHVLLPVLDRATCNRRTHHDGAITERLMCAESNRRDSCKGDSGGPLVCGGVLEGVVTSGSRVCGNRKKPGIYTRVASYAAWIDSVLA
Procedure: as §1, §2, §3, §4, §5

human thrombin = target: T2, human thrombin (Homo sapiens, UniProt P00734); assay: Inactivation rate of human thrombin; format: biochemical; settings: Table VIII; pH 7.5, 25° C; [I] 1.2-54 μM; read-out: kobs/[I]
T2 construct: human thrombin
Method in brief: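 Incubation method: enzyme (0.01-2.3 μM) mixed with inhibitor in 0.1M Hepes, 0.01M CaCl2, pH 7.5, 8% Me2SO, 25° C; residual activity sampled over time with peptide thioester or 4-nitroanilide substrates. kobs from ln(vt/vo) vs time plots.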

[2] = target: T3, porcine pancreatic elastase (PPE) (Sus scrofa, UniProt P00772); assay: Inactivation of porcine pancreatic elastase (PPE); format: biochemical; settings: Table X; after 20 min incubation
T3 construct: from tissue; host or cells: porcine pancreas (from the name)
T3 sequence (P00772 27-266): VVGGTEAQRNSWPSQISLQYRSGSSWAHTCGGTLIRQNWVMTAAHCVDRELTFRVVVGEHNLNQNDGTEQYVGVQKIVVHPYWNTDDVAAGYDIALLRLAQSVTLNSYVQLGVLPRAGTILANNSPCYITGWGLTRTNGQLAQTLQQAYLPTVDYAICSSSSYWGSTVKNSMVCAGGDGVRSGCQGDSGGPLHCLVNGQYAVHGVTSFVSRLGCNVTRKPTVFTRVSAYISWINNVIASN

chymotrypsin = chymotrypsin (Bos taurus, UniProt P00766); assay: Inactivation of chymotrypsin; format: biochemical, bovine; settings: Table X; pH 7.5, 25° C; [I] 0.9-43 μM; read-out: kobs/[I]
human plasmin = target: T4, human plasmin (Homo sapiens, UniProt P00747); assay: Inactivation rate of human plasmin; format: biochemical; settings: Table IX; 0.01M CaCl2, pH 7.5, 25° C; [I] 8.3-41 μM; read-out: kobs/[I]
T4 construct: human plasmin; from tissue; host or cells: human plasma
T4 sequence (P00747 581-810 limits assumed): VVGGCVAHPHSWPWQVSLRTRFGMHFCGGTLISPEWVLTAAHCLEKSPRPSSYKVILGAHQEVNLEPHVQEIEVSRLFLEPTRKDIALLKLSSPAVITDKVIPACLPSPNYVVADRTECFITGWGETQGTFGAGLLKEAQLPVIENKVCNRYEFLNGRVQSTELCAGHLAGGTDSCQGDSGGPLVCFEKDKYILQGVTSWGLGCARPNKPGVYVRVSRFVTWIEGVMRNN
T4 sequence (P00747 97-580 partner limits assumed): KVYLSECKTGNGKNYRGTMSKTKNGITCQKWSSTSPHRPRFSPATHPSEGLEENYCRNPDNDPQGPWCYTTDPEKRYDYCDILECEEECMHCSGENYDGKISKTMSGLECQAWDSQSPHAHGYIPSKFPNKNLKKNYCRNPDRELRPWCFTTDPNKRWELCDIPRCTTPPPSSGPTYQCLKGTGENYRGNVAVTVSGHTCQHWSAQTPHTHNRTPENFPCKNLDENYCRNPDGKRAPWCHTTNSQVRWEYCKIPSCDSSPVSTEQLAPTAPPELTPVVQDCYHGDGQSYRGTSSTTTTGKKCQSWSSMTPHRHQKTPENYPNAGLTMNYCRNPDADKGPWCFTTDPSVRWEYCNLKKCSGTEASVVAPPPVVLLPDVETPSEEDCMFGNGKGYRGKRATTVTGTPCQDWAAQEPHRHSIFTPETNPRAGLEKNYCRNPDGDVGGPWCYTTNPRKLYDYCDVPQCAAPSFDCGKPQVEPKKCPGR

bovine thrombin = target: T5, bovine thrombin (Bos taurus, UniProt P00735); assay: Inactivation rate of bovine thrombin; format: biochemical; settings: Table VIII; pH 7.5, 25° C; [I] 1.2-54 μM; read-out: kobs/[I]
T5 construct: bovine thrombin
Method in brief: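 Enzyme 0.01-2.3 μM, 0.1M Hepes/0.01M CaCl2 pH 7.5, 8-12% Me2SO, 25° C; inhibitor added, timed aliquots assayed for remaining activity; kobs = slope of ln(vt/vo) vs t.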

pig plasma [3] = assay: Activated partial thromboplastin time (APTT), pig plasma; settings: [I] 32 μM
cathepsin G = target: T6, cathepsin G (Homo sapiens, UniProt P08311); assay: Inactivation of cathepsin G; format: biochemical; settings: Table X; pH 7.5, 25° C; [I] 33-46 μM; read-out: kobs/[I]
T6 construct: from tissue; host or cells: human leukocytes
T6 sequence (P08311 21-255): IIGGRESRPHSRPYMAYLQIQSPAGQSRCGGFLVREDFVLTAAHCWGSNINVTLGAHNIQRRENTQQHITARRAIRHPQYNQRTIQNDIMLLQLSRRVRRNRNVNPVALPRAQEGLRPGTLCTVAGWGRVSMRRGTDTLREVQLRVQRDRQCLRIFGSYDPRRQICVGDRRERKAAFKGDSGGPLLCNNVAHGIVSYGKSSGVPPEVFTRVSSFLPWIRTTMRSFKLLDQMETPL

pig plasma [4] = assay: Prothrombin time (PT), pig plasma; settings: [I] 32 μM
[5] = target: T7, human leukocyte elastase (HLE) (Homo sapiens, UniProt P08246); assay: Inactivation of human leukocyte elastase (HLE); format: biochemical; settings: pH 7.5, Table X, biphasic inhibition
T7 construct: from tissue; host or cells: human leukocytes (from the name)
T7 sequence (P08246 30-267): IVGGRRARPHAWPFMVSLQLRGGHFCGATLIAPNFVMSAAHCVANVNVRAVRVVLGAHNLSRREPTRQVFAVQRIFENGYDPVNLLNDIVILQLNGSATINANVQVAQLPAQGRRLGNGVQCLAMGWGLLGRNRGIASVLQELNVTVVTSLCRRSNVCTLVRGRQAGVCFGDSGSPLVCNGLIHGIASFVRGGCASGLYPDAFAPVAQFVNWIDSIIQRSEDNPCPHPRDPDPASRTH
Procedure: Inactivation rates of serine proteases by substituted isocoumarins were measured by the incubation method. An aliquot of inhibitor (25 or 50 μl) in Me2 SO was added to a buffered enzyme solution (0.01-2.3 μM) to initiate the inactivation. Aliquots (50 μl) were withdrawn at various intervals and the residual enzymatic activity was measured. Me2 SO concentration in the reaction mixture was 8-12% (v/v). 0.1 Hepes, 0.01M CaCl2, pH 7.5 buffer was utilized for trypsin and coagulation enzymes. 0.1M Hepes, 0.5M NaCl, pH 7.5 was utilized for other serine proteases. […] Peptide thioesters or peptide nitroanilides with appropriate sequence were used as substrates for various serine proteases. All peptide thioester hydrolysis rates were measured with assay mixtures containing 4,4'-dithiodipyridine (ε324 =19800M^-1 cm^-1 ; Grasetti & Murray, Arch. Biochem. Biophys. 119, pp 41-49 (1967)). Peptide 4-nitroanilide nitroanilide hydrolysis was measured at 410 nm (ε410 =8800M^-1 cm^-1 ; Erlanger et al., Arch. Biochem. Biophys. 95, pp 271-278 (1961)). First order inactivation rate constant (kobs) were obtained from plots of ln (vt /vo) vs time, and the correlation coefficients were greater than 0.98.
^a Inactivation rates were measured at 0.1M Hepes, 0.5 NaCl, pH 7.5,
8-12% Me2 SO and 25° C. by incubation method.
^a Inhibition rates were measured in 0.1M Hepes, 0.05M NaCl, pH 7.5
buffer, 8-9% Me2 SO and at 25° C.
^a Inhibition constants were in 0.1M Hepes, 0.5M NaCl, pH 7.5 buffer,
8-9% Me2 SO and at 25° C.
^a Inhibition rates were measured in 0.1M Hepes, 0.5M NaCl, 2.5%
Me2 SO, pH 7,5 and at 25° C.
^a Inhibition was measured in 0.1M Hepes, 0.5M NaCl, pH 7.5 buffer,
5-10% Me2 SO and at 25° C. Suc--Val--Pro--Phe--NA (0.48 mM)
was used as the substrate for chymotrypsin and cat G.
^a Inhibition rates were measured in 0.1M Hepes, 0.5M NaCl, pH 7.5

kinact/KI (human thrombin)	percentage of inhibition [2]	kinact/KI (chymotrypsin)	kinact/KI (human plasmin)	kinact/KI (bovine thrombin)	kinact/KI (cathepsin G)	kinact/KI ([5]; read-out: kobs/[I] (biphasic, first value))	kinact/KI ([5]; read-out: kobs/[I] (biphasic, second value))	Compound	kobs/[I] [1]	inhibition of protein B (in words) (complement protein B)	inhibition of C2 (in words) (complement protein C2)	kobs/[I] (complement protein D)	APTT (pig plasma [3])	PT (pig plasma [4])
–	–	–	–	–	–	–	–	N=C(N)c1ccc(CS(=O)(=O)F)cc1 [APMSF, 4-amidinophenylmethane sulfonyl fluoride, reference compound]	230 M⁻¹ s⁻¹	do not show any inhibition	do not show any inhibition	110 M⁻¹ s⁻¹	–	–
21000 M⁻¹ s⁻¹	21%	260 M⁻¹ s⁻¹	27800 M⁻¹ s⁻¹	41300 M⁻¹ s⁻¹	35 M⁻¹ s⁻¹	5100 M⁻¹ s⁻¹	360 M⁻¹ s⁻¹	C[C@H](NC(=O)Nc1ccc2c(Cl)c(OCCSC(=N)N)oc(=O)c2c1)c1ccccc1 [S-C6 H5 (CH3)CHNHCONH-CiTEtOIC, 7-((S)-α-methylbenzylcarbamoylamino)-4-chloro-3-(2-isothiureidoethoxy)isocoumarin]	–	–	–	–	> 120 s	30.0 s
